Test results as given in patent US20080200439A1, “Methods and compositions for modulating BK channel activity and vasodilation” (University of Tennessee Research Foundation, priority 2006, published 2008).

Target: T1, homomeric cbv1 (rslo1) channels (Rattus norvegicus, UniProt Q62976)
T1 construct: Full-length cDNA coding for cbv1-subunits was cloned from rat cerebral artery myocytes by PCR; expressed in transfected cells; host or cells: Xenopus laevis oocytes (cRNA injection)
Test: Inside-out patch-clamp of homomeric cbv1 channels expressed in Xenopus oocytes
Type: cell-based
Details: I/O patches, Ca2+i 10 μM, ±20 mV, read-out: Average NPo (% of control)
From the text: cRNA Preparation and Injection into Xenopus Oocytes. Full-length cDNA coding for cbv1-subunits was cloned from rat cerebral artery myocytes by PCR and ligated to the PCR-XL-TOPO cloning vector (Invitrogen Corp., Carlsbad, Calif., United States of America) (Jaggar et al., 2005). cDNA coding for cbv1-subunits was cleaved from the cloning vector by BamHI (Invitrogen Corp., Carlsbad, Calif., United States of America) and XhoI (Promega, Madison, Wis., United States of America) and directly inserted into the pOX vector for expression in Xenopus oocytes. pOX-cbv1 was linearized with NotI (Promega, Madison, Wis., United States of America) and transcribed in vitro using T3 polymerase. […]
Electrophysiology. […] Single-channel and macroscopic currents were recorded from inside-out (I/O) or outside-out (O/O) patches. […] Nominal free Ca^2+ was calculated with MaxChelator Sliders (C. Patton, Stanford University, California, United States of America) and validated experimentally using Ca^2+-selective electrodes (Corning Incorporated Science Products Division, Corning, N.Y., United States of America). […]
Currents were recorded using an EPC8 amplifier (HEKA Electronics, Lambrecht/Pfalz, Germany) at 1 kHz using a low-pass, eight-pole Bessel filter 902LPF (Frequency Devices, Haverhill, Mass., United States of America). […]

T1 sequence (Q62976 1-1148 isoform Q62976-2): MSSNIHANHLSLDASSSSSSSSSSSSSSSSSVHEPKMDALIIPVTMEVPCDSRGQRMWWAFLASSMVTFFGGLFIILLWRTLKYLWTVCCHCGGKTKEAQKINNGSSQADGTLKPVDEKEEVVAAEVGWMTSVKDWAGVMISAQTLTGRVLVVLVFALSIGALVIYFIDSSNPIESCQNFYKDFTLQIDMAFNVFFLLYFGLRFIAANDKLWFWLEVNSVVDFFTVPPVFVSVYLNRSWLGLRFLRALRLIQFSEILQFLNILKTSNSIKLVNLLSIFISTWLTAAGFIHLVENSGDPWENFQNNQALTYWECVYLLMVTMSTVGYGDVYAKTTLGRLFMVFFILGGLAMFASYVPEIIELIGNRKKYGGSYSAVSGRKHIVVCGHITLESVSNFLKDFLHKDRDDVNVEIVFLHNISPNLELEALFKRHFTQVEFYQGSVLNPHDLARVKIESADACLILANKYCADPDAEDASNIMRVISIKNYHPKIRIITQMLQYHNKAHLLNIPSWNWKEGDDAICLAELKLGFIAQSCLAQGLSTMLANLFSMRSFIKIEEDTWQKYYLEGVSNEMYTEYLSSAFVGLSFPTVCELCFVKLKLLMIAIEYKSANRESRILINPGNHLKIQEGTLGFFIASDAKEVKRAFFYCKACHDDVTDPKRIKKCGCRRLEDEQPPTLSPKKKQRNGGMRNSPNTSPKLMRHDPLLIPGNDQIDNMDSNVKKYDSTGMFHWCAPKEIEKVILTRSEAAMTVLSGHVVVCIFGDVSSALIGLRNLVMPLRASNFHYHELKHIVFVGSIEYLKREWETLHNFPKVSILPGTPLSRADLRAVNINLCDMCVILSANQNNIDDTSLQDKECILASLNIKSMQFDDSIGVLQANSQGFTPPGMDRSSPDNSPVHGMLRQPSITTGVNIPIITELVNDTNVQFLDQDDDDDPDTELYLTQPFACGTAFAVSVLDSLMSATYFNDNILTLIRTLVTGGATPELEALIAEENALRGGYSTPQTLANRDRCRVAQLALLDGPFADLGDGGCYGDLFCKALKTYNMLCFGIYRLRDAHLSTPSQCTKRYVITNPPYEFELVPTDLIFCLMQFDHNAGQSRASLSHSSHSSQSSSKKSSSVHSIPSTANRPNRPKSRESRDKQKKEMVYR

Compound: C[C@H](CCC(=O)O)[C@H]1CC[C@H]2[C@@H]3CC[C@@H]4C[C@H](O)CC[C@]4(C)[C@H]3CC[C@]12C [LC, 5β-cholanic acid 3α-ol]
- remaining activity at 150 µM: 112 ± 13%
